Tests used:
Vibrio anguillarium = experiment: Single-species biofilm (microfouling) growth inhibition, crystal violet biomass; assay type: cell-based; conditions: 24 hours, untreated control 0.5
Description: (§1) Fresh stock solution of lactam was prepared at 20 mM in DMSO. Lactam stock was then serially diluted in tissue culture plates in 100% ethanol first ten-fold and subsequently to the desired concentrations. Plates were then left to dry overnight in a fume hood.
(§2) Single species plates were inoculated with each 1×10^6 bacteria/Aspergillus in marine broth and left for 24 hours. Multispecies plates were inoculated with 1×10^5 S. algae, V. anguillarium V. alginolyticus and 1×10^6 C. marina, A. brasiliensis, P. atlantica, C. lytica in marine broth and left for 24 hours, 48 and 72 hours. Plates were washed twice and left overnight to dry. Crystal violet (0.05% w/v) was added for 20 minutes and destained using 100% ethanol. Biomass was measured by optical density (OD) at 570 nm.
(§3) In this experiment, the plates were treated with lactam at levels of 0.0312 mM to 2 mM as well as an untreated control. The specific levels of lactam measured were of 0.0312 mM, of 0.0625 mM, of 0.125 mM, of 0.25 mM, of 0.5 mM, 1 mM, and 2 mM. This would equate to levels of from ˜6 ppm ([…]) to 400 ppm (2 mM), and to wt. % of 0.0006 wt. % ([…]) to 0.04 wt. % (2 mM). The lactam was provided in a DMSO/ethanol solvent to the plates. The plate was then inoculated with the marine organism or mixture thereof. The rate of growth of the culture was measured after 24 hours days by optical density.

Aspergillus brasiliensis = experiment: as above; assay type: cell-based; conditions: 24 hours, untreated control 1.1
Description: as §1, §2, §3

Cellulophaga lytica = experiment: as above; assay type: cell-based; conditions: 24 hours; for Optical Density (570 nm): untreated control 0.7; for lactam concentration with biofilm growth inhibition effect: Cellulophaga lytica
Description: as §1, §2, §3

[1] = system: mixture of the 7 marine organisms (Pseudoalteromonas atlantica, Cellulophaga lytica, Shewanella algae, Cobetia marina, Vibrio anguillarium, Vibrio …); experiment: Multispecies biofilm (microfouling) growth inhibition, crystal violet biomass; assay type: cell-based, mixture of 7 marine organisms; conditions: for lactam concentration that inhibited biofilm growth: 7 marine organism mixture, 24, 48 and 72 hr
Description: as §2, with “Fresh stock solution of lactam was prepared at 20 mM in DMSO. Lactam stock was then serially diluted in tissue culture plates in 100% ethanol first ten-fold and subsequently to the desired concentrations. Plates were then left to dry overnight in a fume hood. Single” for “Single”
The marine species were as used for example 2: Shewanella algae, Cobetia marina, Vibrio alginolyticus, or Pseudoalteromonas atlantica, Aspergillus brasiliensis, Vibrio anguillarium, and Cellulophaga lytica. This time they were used in combination as a mixture to better model the marine environment, and the growth inhibition effect of the lactams on the challenging marine organism mixture was tested. This a challenging test as the presence of marine organisms where the lactam didn't have a growth inhibition effect would be expected to lead to biofilm growth. The results are shown in FIGS. 4 and 5 and Tables 2 and 3.

[2] = 0.0312 mM lactam, 24 hr, untreated control 1.3
[3] = 0.0312 mM lactam, 48 hr, untreated control 1.8
[4] = 0.0312 mM lactam, 72 hr, untreated control 1.1
[5] = 0.0625 mM lactam, 24 hr, untreated control 1.3
[6] = 0.0625 mM lactam, 48 hr, untreated control 1.8
[7] = 0.0625 mM lactam, 72 hr, untreated control 1.1
[8] = 0.125 mM lactam, 24 hr, untreated control 1.3
[9] = 0.125 mM lactam, 48 hr, untreated control 1.8
[10] = 0.125 mM lactam, 72 hr, untreated control 1.1
[11] = 0.25 mM lactam, 24 hr, untreated control 1.3
[12] = 0.25 mM lactam, 48 hr, untreated control 1.8
[13] = 0.25 mM lactam, 72 hr, untreated control 1.1
[14] = 0.5 mM lactam, 24 hr, untreated control 1.3
[15] = 0.5 mM lactam, 48 hr, untreated control 1.8
[16] = 0.5 mM lactam, 72 hr, untreated control 1.1
[17] = 1 mM lactam, 24 hr, untreated control 1.3
[18] = 1 mM lactam, 48 hr, untreated control 1.8
[19] = 1 mM lactam, 72 hr, untreated control 1.1
[20] = 2 mM lactam, 24 hr, untreated control 1.3
[21] = 2 mM lactam, 48 hr, untreated control 1.8
[22] = 2 mM lactam, 72 hr, untreated control 1.1

C=C1NC(=O)C=C1c1ccc(C)cc1 [lactam 491, 5-methylene-4-(p-tolyl)pyrrol-2-one]
Optical Density (570 nm) (Vibrio anguillarium; 0.0312 mM lactam): 0.2
Optical Density (570 nm) (Vibrio anguillarium; 0.0625 mM lactam): 0.7
Optical Density (570 nm) (Vibrio anguillarium; 0.125 mM lactam): 0.7
Optical Density (570 nm) (Vibrio anguillarium; 0.25 mM lactam): 0.3
Optical Density (570 nm) (Vibrio anguillarium; 0.5 mM lactam): 0.4
Optical Density (570 nm) (Vibrio anguillarium; 1 mM lactam): 0.2
Optical Density (570 nm) (Vibrio anguillarium; 2 mM lactam): 0.1
Optical Density (570 nm) (Aspergillus brasiliensis; 0.0312 mM lactam): 0.4
Optical Density (570 nm) (Aspergillus brasiliensis; 0.0625 mM lactam): 0.5
Optical Density (570 nm) (Aspergillus brasiliensis; 0.125 mM lactam): 0.5
Optical Density (570 nm) (Aspergillus brasiliensis; 0.25 mM lactam): 0.5
Optical Density (570 nm) (Aspergillus brasiliensis; 0.5 mM lactam): 0.5
Optical Density (570 nm) (Aspergillus brasiliensis; 1 mM lactam): 0.3
Optical Density (570 nm) (Aspergillus brasiliensis; 2 mM lactam): 0.4
Optical Density (570 nm) (Cellulophaga lytica; 0.0312 mM lactam): 0.9
Optical Density (570 nm) (Cellulophaga lytica; 0.0625 mM lactam): 1.0
Optical Density (570 nm) (Cellulophaga lytica; 0.125 mM lactam): 0.9
Optical Density (570 nm) (Cellulophaga lytica; 0.25 mM lactam): 0.9
Optical Density (570 nm) (Cellulophaga lytica; 0.5 mM lactam): 1.0
Optical Density (570 nm) (Cellulophaga lytica; 1 mM lactam): 0.5
Optical Density (570 nm) (Cellulophaga lytica; 2 mM lactam): 0.6
lactam concentration with biofilm growth inhibition effect (Cellulophaga lytica): > 1 mM
Optical Density (570 nm) [1, 2]: 1.2
Optical Density (570 nm) [1, 3]: 1.7
Optical Density (570 nm) [1, 4]: 1.3
Optical Density (570 nm) [1, 5]: 1.1
Optical Density (570 nm) [1, 6]: 1.8
Optical Density (570 nm) [1, 7]: 1.2
Optical Density (570 nm) [1, 8]: 0.9
Optical Density (570 nm) [1, 9]: 1.6
Optical Density (570 nm) [1, 10]: 1.0
Optical Density (570 nm) [1, 11]: 0.9
Optical Density (570 nm) [1, 12]: 1.4
Optical Density (570 nm) [1, 13]: 0.9
Optical Density (570 nm) [1, 14]: 1.0
Optical Density (570 nm) [1, 15]: 1.2
Optical Density (570 nm) [1, 16]: 0.9
Optical Density (570 nm) [1, 17]: 0.7
Optical Density (570 nm) [1, 18]: 1.3
Optical Density (570 nm) [1, 19]: 1.2
Optical Density (570 nm) [1, 20]: 0.2
Optical Density (570 nm) [1, 21]: 0.2
Optical Density (570 nm) [1, 22]: 0.3
lactam concentration that inhibited biofilm growth [1]: > 0.25 mM

C=C1NC(=O)C=C1c1ccc(Cl)cc1 [lactam 488, 4-(4-chlorophenyl)-5-methylene-pyrrol-2-one]
Optical Density (570 nm) (Vibrio anguillarium; 0.0312 mM lactam): 0.5
Optical Density (570 nm) (Vibrio anguillarium; 0.0625 mM lactam): 0.6
Optical Density (570 nm) (Vibrio anguillarium; 0.125 mM lactam): 0.7
Optical Density (570 nm) (Vibrio anguillarium; 0.25 mM lactam): 0.6
Optical Density (570 nm) (Vibrio anguillarium; 0.5 mM lactam): 0.2
Optical Density (570 nm) (Vibrio anguillarium; 1 mM lactam): 0.1
Optical Density (570 nm) (Vibrio anguillarium; 2 mM lactam): 0.1
Optical Density (570 nm) (Aspergillus brasiliensis; 0.0312 mM lactam): 0.5
Optical Density (570 nm) (Aspergillus brasiliensis; 0.0625 mM lactam): 0.6
Optical Density (570 nm) (Aspergillus brasiliensis; 0.125 mM lactam): 0.5
Optical Density (570 nm) (Aspergillus brasiliensis; 0.25 mM lactam): 0.4
Optical Density (570 nm) (Aspergillus brasiliensis; 0.5 mM lactam): 0.6
Optical Density (570 nm) (Aspergillus brasiliensis; 1 mM lactam): 0.5
Optical Density (570 nm) (Aspergillus brasiliensis; 2 mM lactam): 0.4
Optical Density (570 nm) (Cellulophaga lytica; 0.0312 mM lactam): 0.9
Optical Density (570 nm) (Cellulophaga lytica; 0.0625 mM lactam): 0.9
Optical Density (570 nm) (Cellulophaga lytica; 0.125 mM lactam): 0.8
Optical Density (570 nm) (Cellulophaga lytica; 0.25 mM lactam): 0.8
Optical Density (570 nm) (Cellulophaga lytica; 0.5 mM lactam): 0.2
Optical Density (570 nm) (Cellulophaga lytica; 1 mM lactam): 0.2
Optical Density (570 nm) (Cellulophaga lytica; 2 mM lactam): 0.1
lactam concentration with biofilm growth inhibition effect (Cellulophaga lytica): > 0.5 mM
Optical Density (570 nm) [1, 2]: 1.3
Optical Density (570 nm) [1, 3]: 1.5
Optical Density (570 nm) [1, 4]: 1.4
Optical Density (570 nm) [1, 5]: 1.4
Optical Density (570 nm) [1, 6]: 1.8
Optical Density (570 nm) [1, 7]: 1.4
Optical Density (570 nm) [1, 8]: 1.2
Optical Density (570 nm) [1, 9]: 1.7
Optical Density (570 nm) [1, 10]: 1.2
Optical Density (570 nm) [1, 11]: 1
Optical Density (570 nm) [1, 12]: 1.3
Optical Density (570 nm) [1, 13]: 1.0
Optical Density (570 nm) [1, 14]: 0.6
Optical Density (570 nm) [1, 15]: 0.6
Optical Density (570 nm) [1, 16]: 0.4
Optical Density (570 nm) [1, 17]: 0.3
Optical Density (570 nm) [1, 18]: 0.2
Optical Density (570 nm) [1, 19]: 0.1
Optical Density (570 nm) [1, 20]: 0.1
Optical Density (570 nm) [1, 21]: 0.1
Optical Density (570 nm) [1, 22]: 0.1
lactam concentration that inhibited biofilm growth [1]: > 0.25 mM

Source: US12180388B2, “Method of treatment of a surface” (Conopco, Inc., priority 2018, dated 2024)
